The record followed here is ChEMBL document CHEMBL1129130, “Preparation, antimicrobial evaluation and mutagenicity of differently substituted [2-hydroxyaryl]-[1-methyl-5-nitro-1H-2-imidazolyl]methanols” (1996).

Values after ≈ are worked out from the molar mass of the structure shown.

Test [1] is described as follows: Minimum inhibitory concentration (MIC) of compound expressed as geometric mean of various bacterias.*. The test is classed as functional.
For test [2], the system named is Salmonella typhimurium. The experiment in a line: Compound was tested for the mutagenicity activity in the Salmonella Typhimurium reverse mutation assay;(+) - low levels of mutagenicity. It is filed as functional, organism-based. As to conditions: Salmonella enterica subsp. enterica serovar Typhimurium.
Test [3] has as its system Salmonella typhimurium. The experiment in a line: Compound was tested for the mutagenicity activity in the Salmonella Typhimurium reverse mutation assay; +-indicates the levels of mutagenicity as the number of revertant colonies obtained increases 1.5-2 times. As to conditions: Salmonella enterica subsp. enterica serovar Typhimurium. The test is classed as functional, organism-based.

Test [4] concerns Salmonella typhimurium. The experiment in a line: Compound was tested for the mutagenicity activity in the Salmonella Typhimurium reverse mutation assay; (+) - low levels of mutagenicity. Conditions: Salmonella enterica subsp. enterica serovar Typhimurium. The test is classed as functional, organism-based.
The subject of test [5] is Salmonella typhimurium. In words: Compound was tested for the mutagenicity activity in the Salmonella Typhimurium reverse mutation assay; ++/+++-indicates the levels of mutagenicity as the number of revertant colonies obtained increases 5/10 times. The test is classed as functional, organism-based. Conditions: Salmonella enterica subsp. enterica serovar Typhimurium.
The nature of test [6]: Minimum inhibitory concentration (MIC) of compound expressed as geometric mean of various bacterias. It is filed as functional.
Test [7] concerns Salmonella typhimurium. In words: Compound was tested for the mutagenicity activity in the Salmonella Typhimurium reverse mutation assay (+) - low levels of mutagenicity. As to conditions: Salmonella enterica subsp. enterica serovar Typhimurium. It is filed as functional, organism-based.

For orientation: MIC means the lowest concentration found to suppress growth. A low value points to greater potency. In the case of `Cn1c([N+](=O)[O-])cnc1C(O)c1cc(C2C3C[C@H]4C[C@@H](C3)C[C@@H]2C4)ccc1O` (some centres undefined), the MIC in test [1] was 1.8 µM (≈ 0.69 µg/mL).

Compound `Cn1c([N+](=O)[O-])cnc1C(O)c1cc(Cl)cc(C2C3C[C@H]4C[C@@H](C3)C[C@@H]2C4)c1O` (some centres undefined) gave a minimum inhibitory concentration (MIC) in test [1] of 6.78 µM (≈ 2.83 µg/mL). Moreover, the Mutagenicity result with Salmonella typhimurium [2] is “low levels of mutagenicity”.

Regarding `Cn1c([N+](=O)[O-])cnc1C(O)c1cc(F)cc(C2C3C[C@H]4C[C@@H](C3)C[C@@H]2C4)c1O` (some centres undefined), the MIC in test [1] came out at 3.97 µM (≈ 1.59 µg/mL). Besides, in the test with Salmonella typhimurium [2], the Mutagenicity entry is on record as “low levels of mutagenicity”.

The compound `COc1cc(C(O)c2ncc([N+](=O)[O-])n2C)c(O)c(C(C)(C)C)c1` (centres undefined) displayed an MIC in test [1] of 28.2 µM (≈ 9.46 µg/mL).

`Cn1c([N+](=O)[O-])cnc1C(O)c1cccc(C2CCCCC2)c1O` (centres undefined): the MIC in test [1] is 4.68 µM (≈ 1.55 µg/mL). In the test on Salmonella typhimurium [3], the Mutagenicity entry is reported as “Levels of mutagencity as the number of revertant colonies obtained increases 1.5-2 times”.

In test [1], `Cc1ncc([N+](=O)[O-])n1CCO` [METRONIDAZOLE] came in with a minimum inhibitory concentration (MIC) of 1.46 µM (≈ 0.25 µg/mL).

For the compound `Cn1c([N+](=O)[O-])cnc1C(O)c1cccc(C2C3C[C@H]4C[C@@H](C3)C[C@@H]2C4)c1O` (some centres undefined), the MIC in test [1] was determined as 3.84 µM (≈ 1.47 µg/mL).

In the case of `COc1cc(C(O)c2ncc([N+](=O)[O-])n2C)c(O)c(C2C3C[C@H]4C[C@@H](C3)C[C@@H]2C4)c1` (some centres undefined), the MIC in test [1] was 4.21 µM (≈ 1.74 µg/mL). In addition, in the test on Salmonella typhimurium [4], the Mutagenicity entry is recorded as “low levels of mutagenicity”.

For `Cn1c([N+](=O)[O-])cnc1C(O)c1cccc(C23C[C@H]4C[C@@H](C2)C[C@@H](C3)C4)c1O` (some centres undefined), the MIC in test [1] turned out to be 4.46 µM (≈ 1.71 µg/mL). The Mutagenicity entry in the test with Salmonella typhimurium [3] is given as “Levels of mutagencity as the number of revertant colonies obtained increases 1.5-2 times”.

On to `Cn1c([N+](=O)[O-])cnc1C(O)c1cc(C(C)(C)C)ccc1O` (centres undefined) [ABUNIDAZOLE], for which the Mutagenicity entry in the test with Salmonella typhimurium [5] is on record as “++/+”. Moreover, in test [1], the MIC came to 13.1 µM (≈ 4 µg/mL).

For `Cn1c([N+](=O)[O-])cnc1C(O)c1cc(C2CCCCC2)ccc1O` (centres undefined), the MIC in test [6] is 8.82 µM (≈ 2.92 µg/mL). Also, the Mutagenicity result with Salmonella typhimurium [7] is “low levels of mutagenicity”.

The compound `Cn1c([N+](=O)[O-])cnc1C(O)c1cc(C23C[C@H]4C[C@@H](C2)C[C@@H](C3)C4)ccc1O` (some centres undefined) came in with an MIC in test [1] of 2.43 µM (≈ 0.932 µg/mL).
